The values that follow come from article PMC7848024, “Synthetic Cationic Autoantigen Mimics Glatiramer Acetate Persistence at the Site of Injection and Is Efficacious Against Experimental Autoimmune Encephalomyelitis” (Frontiers in Immunology, 2021).

The nature of series [1]: Dynamic light scattering particle sizing. The series is classed as physicochemical. The method, then:
Raman and dynamic light scattering were performed with a Malvern Helix (Malvern Instruments, Malvern, UK). 20 μl of K-PLP at a concentration of 10 mg/ml in 150 mM citrate-phosphate buffer at pH 6 was loaded into a custom steel cuvette with quartz windows. Raman scattering from a 785 nm laser was collected in a backscattering geometry. Samples were measured in triplicate, each replicate consisted of 10 acquisitions of 10 second exposure each. The Zetasizer Helix Analyze software (Malvern Instruments) was used to buffer subtract, normalize to the phenylalanine peak (1003 cm-1), then baseline spectra for analysis. Dynamic light scattering autocorrelation functions were measured with a 632 nm laser with light collected in a 173° angle backscattering geometry. Autocorrelation functions were fit using the method of cumulants.

Series [2] in a line: Subcutaneous injection simulation (Scissor): aggregation and release. It counts as physicochemical. The following applies: for formation of visible aggregates in HA: 1 ml of 20 mg/ml injected into 10 mg/ml HA (1.5–1.8 MDa), Scissor cartridge, visual observation. How it is done: The subcutaneous injection simulation was performed using the method previously described ([15]). 1 ml of 20 mg/ml K-PLP in 40 mg/ml mannitol solution was injected into Scissor cartridge containing 10 mg/ml 1.5–1.8 MDa hyaluronic acid (HA). Time points were collected over 3 days and concentration of K-PLP released into the chamber buffer was determined using a bicinchoninic acid assay (Micro BCA protein assay kit, Thermo Scientific, Waltham, MA) by constructing a calibration curve with K-PLP concentrations of 2, 5, 10, 20, 30, and 40 µg/ml. The concentration values were adjusted to account for K-PLP that was taken out during sampling and then converted to percentage of K-PLP released before plotted as a function of time.

The test system of series [3] is EAE induced using PLP 139-151. Kind of series: In vivo efficacy study, EAE animal model. Set-up: species or system SJL/J (H-2) mice. The method, then:
In vivo efficacy of K-PLP was assessed using the EAE animal model induced in female 4-6-week old SJL/J (H-2) mice (20–25 g, Envigo, Indianapolis, IN). All protocols were approved through the University’s Institutional Animal Care and Use Committee, and all animals were housed in pathogen-free conditions. EAE induction and treatment schedule were based on methods previously described ([18]–[20]). […]. Additionally, on day 0 each mouse received a 100 μl intraperitoneal injection of pertussis toxin at 100 ng/ml. This administration of pertussis toxin was repeated on day 2. Beginning on day 7, disease severity was monitored daily through the use of a symptom scoring system as follows: 0, no clinical disease symptoms; 1, weakness or limpness of the tail; 2, weakness or partial paralysis of one or two hind limbs (paraparesis); 3, full paralysis of both hind limbs (paraplegia); 4, paraplegia plus weakness or paralysis of forelimbs; 5, moribund (euthanasia necessary). Mouse weight was also recorded daily throughout the study. In vivo treatment groups consisted of 6 mice per group. Treatments were administered in 100 μl SC injections formulated in 40 mg/ml mannitol. Injections were administered between the shoulder blades. Copaxone and K-PLP were administered at 4.5 mg/ml while 9-unit poly-lysine was administered at the molar equivalent to K-PLP injections, resulting in a concentration of 1.7 mg/ml. Treatment injections were performed on days 4, 7, and 10 following EAE induction. Mouse weights were recorded daily beginning on day 0 and clinical scores were recorded daily beginning on day 7. Statistical analysis was performed using two-way analysis of variance (ANOVA) on the clinical scores and weights, one-way ANOVA on the cumulative clinical scores, followed by Turkey comparison tests for all. Statistical significance for all analyses was set at p<0.05. All statistical analyses were performed using GraphPad Software (GraphPad Software Inc.).

The next series has as its system footpads of mice. Kind of series: In vivo migration imaging: retention at the footpad injection site. The following applies: 10 μl into the footpad, cy7-labeled mixed with unlabeled compound, 20 mg/ml (PLP molar equivalent), dye 25 μM; 1-4 h; near-IR imaging; one mouse per compound.
For series [4] the following is noted: cited from earlier work; for formation of visible aggregates in the presence of HA (literature): in the presence of glycosaminoglycans such as HA. An excerpt: GA consists of a broad population of peptides (average MW 5–9 kDa) comprising four amino acids (AKEY). Lysine is the predominant amino acid at ~34% of the molar mass, which imbues a strong cationic character (pI ~10). […] Approximately 30% of GA remained aggregated after 3 days according to in vitro subcutaneous (SC) injection simulation experiments. […] GEMSP consists of a mixture of fatty acid linked poly-lysine (PLL), antioxidants-PLL, free radical scavengers-PLL, and amino acids-PLL.

“Also recorded” adds a separate entry of the source.

Procedure for footpads of mice: Herein, the labeled compounds will be referred to as cy7-GA, cy7-K-PLP, cy7-PEG and cy7-PLP.
Similar imaging method as previously described was used ([15]). Three female SJL/J mice (20-25 g, Envigo, Indianapolis, IN) were used for imaging, one each for K-PLP, PLP, and GA. Unlabeled K-PLP and unlabeled GA were mixed with cy7-K-PLP and cy7-GA, respectively, to a final concentration of 20 mg/ml with the amount of dye normalized to the equivalent of 25 μM of free cyanine 7 dye. Similarly, unlabeled PLP was mixed with cy7-PLP to a concentration that is molar equivalent to 20 mg/ml of K-PLP with the amount of dye normalized to the equivalent of 25 μM of free cyanine 7 dye. Each mouse was injected with 10 μl of their respective treatment at the center of the footpad every hour for 4 h in the following order: left forelimb at the 1-h time point, right forelimb at the 2-h time point, left hindlimb at the 3-h time point, and right hindlimb at the 4-h time point for K-PLP; right forelimb at the 1-h time point, left forelimb at the 2-h time point, right hindlimb at the 3-h time point, and left hindlimb at the 4-h time point for both GA and PLP. […]

Turning to “NH2-KKKKKKKKKKK-PEG-PEG-PEG-PEG-HSLGKWLGHPDKF-OH [K-PLP]”, in series [1] (10 mg/ml in 150 mM citrate-phosphate buffer pH 6, 632 nm laser, 173° backscattering, method of cumulants, triplicate), the “mean size (DLS)” value was “around 2 nm”. The “polydispersity (DLS)” value in series [1] (10 mg/ml in 150 mM citrate-phosphate buffer pH 6, over the temperature ramp) is on record as “less than 0.3”. The “formation of visible aggregates in HA” value in series [2] is listed as “visible aggregates were formed immediately”. The “release rate compared to GA” value in series [2] (Scissor release profile over 3 days, GA profile from ref 15) is “released at a similar rate as GA”. In addition, the “remained in the cartridge at the end of the three-day experiment” value in series [2] (Scissor, 20 mg/ml into 10 mg/ml HA, end of 3 days) is “approximately 20%”. Also, in series [2] (Scissor, 1 ml of 20 mg/ml in 40 mg/ml mannitol into 10 mg/ml HA, after 2 days, Micro BCA assay), the “plateau of release into the chamber after 2 days” value is given as “around 80%”. Besides, the “K-PLP released into the chamber over the first 3 h” value in series [2] (Scissor, 1 ml of 20 mg/ml in 40 mg/ml mannitol into 10 mg/ml HA, first 3 h, Micro BCA assay) is “approximately 20%”. In addition, in series [3] (100 μl SC in 40 mg/ml mannitol, 4.5 mg/ml, days 4, 7 and 10, scores to day 25, 6 mice per group), the clinical score entry is given as “lowest clinical score”. For the same substance, the “percentage of disease-free mice” value in series [3] (100 μl SC, days 4, 7 and 10, 6 mice per group) was “highest percentage of disease-free mice”. Moreover, the weight decrease entry in series [3] (100 μl SC, days 4, 7 and 10, % weight change normalized to day 7, 6 mice per group) is on record as “least weight decrease”. The “weight loss from day 13 to day 17 (peak disease)” value in series [3] (compared to 9-unit poly-lysine (p<0.0001) and PLP (p<0.01), two-way ANOVA) is on record as “no significant weight loss”. For the same substance, the “cumulative clinical scores, day 0 to day 25” value in series [3] (one-way ANOVA, 6 mice per group) is given as “significant improvement over 9-unit poly-lysine, but not PLP”.
As for “glatiramer acetate [GA, reference compound]”, the “fluorescence intensity at the footpads over 4 h” value with footpads of mice was “did not significantly decrease over the course of the experiment”. Besides, in series [4], the “formation of visible aggregates in the presence of HA (literature)” value is recorded as “forms large, visible aggregates”. In series [4] (in vitro subcutaneous injection simulation, 3 days), the “remained aggregated after 3 days” value is on record as “Approximately 30%”. Moreover, the “formation of visible aggregates in HA” value in series [2] is recorded as “Formation of aggregates was observed immediately”. In series [3] (100 μl SC, days 4, 7 and 10, Copaxone 4.5 mg/ml, 9-unit poly-lysine 1.7 mg/ml, 6 mice per group), the “disease progression compared to the control (mannitol)” value is given as “any deviations from the control were not statistically significant; also recorded: did not significantly improve the clinical outcomes”.
poly-lysine: in series [4], the “formation of visible aggregates in the presence of HA (literature)” value is listed as “able to form visible aggregates”.
